# According to ChEMBL document CHEMBL5042524, “Discovery of Novel Histone Deacetylase 6 (HDAC6) Inhibitors with Enhanced Antitumor Immunity of Anti-PD-L1 Immunotherapy in Melanoma” (J Med Chem, 2022):
# Active and inactive are the calls of the source. The rule behind the calls is not given here.
# Legend:
# B16-F10 [1] = test: Induction of cell cycle arrest in mouse B16-F10 cells assessed as decrease in cells at G1 phase at 0.1 to 1 uM incubated for 48 hrs by RNase/PI staining based flow cytometry analysis; assay type: functional; settings: dose 0.1-1 µM
# [2] = MRT(0 to t) in Sprague-Dawley rat at 10 mg/kg, po measured upto 48 hrs by LC-MS/MS analysis; assay type: ADME, organism-based; settings: in vivo
# B16-F10 [3] = test: Antitumour activity against mouse B16-F10 cells allografted in C57BL/6 mouse model assessed as increase in acetylated alpha tubulin expression level in tumor at 50 mg/kg, ip measured after 14 days by […] based microscopic analysis (Rvb =1.77%); assay type: functional; settings: time 14 day
# [4] = Toxicity in C57BL/6 mouse allografted with B16-F10 cells assessed as body weight loss at 50 mg/kg, ip administered daily for 14 days; assay type: organism-based; settings: in vivo, 336 h, time 14 day
# [5] = MRT (0 to infinity) in Sprague-Dawley rat at 10 mg/kg, po measured upto 48 hrs by LC-MS/MS analysis; assay type: ADME, organism-based; settings: in vivo
# Mus musculus = test: Myelosuppression in C57BL/6 mouse assessed as change in granulocyte count at 50 mg/kg, IG administered once daily via gavage for 14 days; assay type: toxicity, organism-based; settings: in vivo, po, 336 h, time 14 day
# [6] = Half life in Sprague-Dawley rat at 2 mg/kg, iv measured upto 48 hrs by LC-MS/MS analysis; assay type: ADME, organism-based; settings: in vivo
# B16-F10 [7] = test: (§1) Antitumour activity against mouse B16-F10 cells allografted in C57BL/6 mouse model assessed as increase in CD3 positive/CD8 positive cells in tumor at 50 mg/kg, ip administered for 14 days in presence of 2-(5-chloro-2-(3-cyanobenzyloxy)-4-((2-methylbiphenyl-3-yl)methoxy)benzylamino)-2-methylpropanoic acid by flow cytometry analysis (Rvb= 6.65%); assay type: functional; settings: time 14 day
# B16-F10 [8] = test: as §1, with “positive/CD4” for “positive/CD8”, “8.73%)” for “6.65%)”; assay type: functional; settings: time 14 day
# [9] = Potency index, ratio of MS-275 IC50 to test compound IC50 for antiproliferative activity against human YCC3/7 cells assessed as cell growth inhibition; assay type: functional
# [10] = Clearance in Sprague-Dawley rat at 10 mg/kg, po measured upto 48 hrs by LC-MS/MS analysis; assay type: ADME, organism-based; settings: in vivo
# [11] = Cmax in Sprague-Dawley rat at 10 mg/kg, po measured upto 48 hrs by LC-MS/MS analysis; assay type: ADME, organism-based; parameters: route oral, dose 10 mg/kg, time <=48; settings: in vivo
# B16-F10 [12] = test: Antitumor activity against mouse B16-F10 cells allografted in C57BL/6 mouse assessed as tumor growth inhibition at 50 mg/kg, ip administered daily for 14 days by caliper method (Rvb= 63%); assay type: functional; settings: 336 h, time 14 day, read-out: TGI
# [13] = Resistance index, ratio of IC50 for antiproliferative activity against human YCC3/7 cells to IC50 for antiproliferative activity against human YCC-11 cells; assay type: functional
# [14] = Toxicity in C57BL/6 mouse bearing B16-F10 tumor assessed as morphological changes in kidney at 50 mg/kg, ip administered for 14 days by H and E staining based microscopic analysis; assay type: organism-based; settings: in vivo, 336 h, time 14 day
# [15] = Apparent volume of distribution in Sprague-Dawley rat at 2 mg/kg, iv measured upto 48 hrs by LC-MS/MS analysis; assay type: ADME, organism-based; settings: in vivo
# [16] = Toxicity in C57BL/6 mouse bearing B16-F10 tumor assessed as morphological changes in liver at 50 mg/kg, ip administered for 14 days by H and E staining based microscopic analysis; assay type: organism-based; settings: in vivo, 336 h, time 14 day
# [17] = Tmax in Sprague-Dawley rat at 10 mg/kg, po measured upto 48 hrs by LC-MS/MS analysis; assay type: ADME, organism-based; settings: in vivo
# [18] = Tmax in Sprague-Dawley rat at 2 mg/kg, iv measured upto 48 hrs by LC-MS/MS analysis; assay type: ADME, organism-based; settings: in vivo
# [19] = Cardiotoxicity in C57BL/6 mouse at 50 mg/kg, IG administered once daily via gavage for 14 days by ECG analysis; assay type: toxicity, organism-based; settings: in vivo, po, 336 h, time 14 day
# [20] = Half life in Sprague-Dawley rat at 10 mg/kg, po measured upto 48 hrs by LC-MS/MS analysis; assay type: ADME, organism-based; settings: in vivo
compound,measurement,setting,value
COc1ccc(-c2ncc(C(=O)NCCCCCCC(=O)NO)[nH]2)c(OC)c1,Activity,B16-F10 [1],Active
COc1ccc(-c2ncc(C(=O)NCCCCCCC(=O)NO)s2)c(OC)c1,MRT last at 48 h,[2],7.4 h
same,Activity,B16-F10 [3],43.6%
same,Activity,[4],Non-Toxic
same,MRT inf,[5],8.5 h
same,Activity,Mus musculus,Non-Toxic
same,half-life,[6],6.2 h
same,Activity,B16-F10 [7],16.5%
same,Activity,B16-F10 [8],26.3%
same,Ratio IC50,[9],6
same,CL,[10],144.1 L/h/kg
same,Cmax,[11],0.035 µg/mL
same,inhibition in vivo at 50 mg/kg,B16-F10 [12],48%
same,Ratio IC50,[13],1.2
same,Activity,[14],Non-Toxic
same,Vz/F,[15],76.5 L/kg
same,Activity,[16],Non-Toxic
same,Tmax,[17],5.3 h
same,Tmax,[18],4.98 min
same,Activity,[19],Non-Toxic
same,half-life,[20],5.8 h
